These results are taken from ChEMBL document CHEMBL4043275, “Design, synthesis and biological evaluation of phthalimide-alkylamine derivatives as balanced multifunctional cholinesterase and monoamine oxidase-B inhibitors for the treatment of Alzheimer's disease” (Bioorg Med Chem Lett, 2017).

Assay [1] deals with Butyrylcholinesterase (Rattus norvegicus, UniProt Q9JKC1). The experiment in a line: Inhibition of rat serum BChE using butyrylthiocholine chloride as substrate incubated for 15 mins by Ellman's method. On the technique in general: DTNB colorimetry detects thiols as they appear.
In assay [2] the target is T1, Amine oxidase [flavin-containing] B (Homo sapiens, UniProt P27338).
T1 sequence (P27338 whole entry): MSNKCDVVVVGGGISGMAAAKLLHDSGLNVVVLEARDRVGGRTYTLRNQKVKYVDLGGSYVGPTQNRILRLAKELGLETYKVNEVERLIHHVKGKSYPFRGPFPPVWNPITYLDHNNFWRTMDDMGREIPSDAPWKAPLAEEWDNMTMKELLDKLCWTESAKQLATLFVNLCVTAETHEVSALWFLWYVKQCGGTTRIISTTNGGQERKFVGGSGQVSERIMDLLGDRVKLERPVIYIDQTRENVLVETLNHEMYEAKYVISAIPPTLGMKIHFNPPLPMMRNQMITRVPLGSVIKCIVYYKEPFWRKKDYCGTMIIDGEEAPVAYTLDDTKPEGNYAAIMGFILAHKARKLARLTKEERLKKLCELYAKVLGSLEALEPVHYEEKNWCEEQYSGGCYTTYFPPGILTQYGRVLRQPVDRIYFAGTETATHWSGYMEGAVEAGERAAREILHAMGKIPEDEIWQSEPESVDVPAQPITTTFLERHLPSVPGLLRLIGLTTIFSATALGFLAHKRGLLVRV
The experiment in a line: Inhibition of human recombinant MAO-B expressed in baculovirus infected BTI insect cells using kynuramine as substrate after 30 mins by fluorescence assay. It counts as cell-based.

The target of assay [3] is Cholinesterase (Equus caballus, UniProt P81908). In words: Inhibition of equine serum BChE using butyrylthiocholine chloride as substrate incubated for 15 mins by Ellman's method.
Assay [4] concerns the target Acetylcholinesterase (Electrophorus electricus, UniProt O42275). In words: Inhibition of electric eel AChE using acetylthiocholine chloride as substrate incubated for 15 mins by Ellman's method.
Assay [5] deals with T2, Amine oxidase [flavin-containing] A (Homo sapiens, UniProt P21397).
T2 sequence (P21397 whole entry): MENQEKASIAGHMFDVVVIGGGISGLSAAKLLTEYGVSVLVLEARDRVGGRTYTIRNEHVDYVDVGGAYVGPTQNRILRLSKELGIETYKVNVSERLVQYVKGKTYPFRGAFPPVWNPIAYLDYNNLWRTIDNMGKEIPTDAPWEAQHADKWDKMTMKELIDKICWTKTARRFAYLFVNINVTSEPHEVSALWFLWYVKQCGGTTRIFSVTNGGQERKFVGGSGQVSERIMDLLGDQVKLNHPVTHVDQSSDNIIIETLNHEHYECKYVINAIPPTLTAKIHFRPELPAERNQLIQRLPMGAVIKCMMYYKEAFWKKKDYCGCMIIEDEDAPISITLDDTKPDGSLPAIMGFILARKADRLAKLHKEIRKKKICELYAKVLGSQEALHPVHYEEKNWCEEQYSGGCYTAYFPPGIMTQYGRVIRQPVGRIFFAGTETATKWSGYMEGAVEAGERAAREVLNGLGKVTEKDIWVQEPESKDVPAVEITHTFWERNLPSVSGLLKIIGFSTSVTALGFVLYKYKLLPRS
In words: Inhibition of human recombinant MAO-A expressed in baculovirus infected BTI insect cells at 20 uM using kynuramine as substrate after 30 mins by fluorescence assay relative to control. To be noted: 0.5 h.

The target in assay [6] is T3, Acetylcholinesterase (Rattus norvegicus, UniProt P37136).
T3 sequence (P37136 whole entry): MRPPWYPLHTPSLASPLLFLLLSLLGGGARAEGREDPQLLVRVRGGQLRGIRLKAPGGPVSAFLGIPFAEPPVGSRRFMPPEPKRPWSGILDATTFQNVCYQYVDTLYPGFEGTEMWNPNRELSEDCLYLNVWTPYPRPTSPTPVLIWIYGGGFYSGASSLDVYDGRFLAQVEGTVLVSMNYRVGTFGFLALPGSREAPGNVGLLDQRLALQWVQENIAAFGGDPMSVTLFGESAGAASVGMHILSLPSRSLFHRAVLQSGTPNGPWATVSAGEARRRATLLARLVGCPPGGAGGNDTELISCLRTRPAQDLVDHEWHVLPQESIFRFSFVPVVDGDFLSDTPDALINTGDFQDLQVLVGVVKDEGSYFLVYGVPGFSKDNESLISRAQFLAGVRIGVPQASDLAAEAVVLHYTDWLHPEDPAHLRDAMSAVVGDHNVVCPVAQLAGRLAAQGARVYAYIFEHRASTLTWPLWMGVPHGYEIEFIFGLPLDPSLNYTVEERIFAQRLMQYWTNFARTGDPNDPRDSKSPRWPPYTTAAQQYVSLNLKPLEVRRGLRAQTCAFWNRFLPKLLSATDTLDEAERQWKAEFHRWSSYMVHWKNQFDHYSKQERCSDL
The experiment in a line: Inhibition of rat cortex homogenate AChE using acetylthiocholine chloride as substrate incubated for 15 mins by Ellman's method.

Assay [7] in a line: Selectivity index, ratio of IC50 for equine serum BChE to IC50 for electric eel AChE.

Each structure is given as a SMILES string.

Cholinesterase, sequence (P81908 whole entry): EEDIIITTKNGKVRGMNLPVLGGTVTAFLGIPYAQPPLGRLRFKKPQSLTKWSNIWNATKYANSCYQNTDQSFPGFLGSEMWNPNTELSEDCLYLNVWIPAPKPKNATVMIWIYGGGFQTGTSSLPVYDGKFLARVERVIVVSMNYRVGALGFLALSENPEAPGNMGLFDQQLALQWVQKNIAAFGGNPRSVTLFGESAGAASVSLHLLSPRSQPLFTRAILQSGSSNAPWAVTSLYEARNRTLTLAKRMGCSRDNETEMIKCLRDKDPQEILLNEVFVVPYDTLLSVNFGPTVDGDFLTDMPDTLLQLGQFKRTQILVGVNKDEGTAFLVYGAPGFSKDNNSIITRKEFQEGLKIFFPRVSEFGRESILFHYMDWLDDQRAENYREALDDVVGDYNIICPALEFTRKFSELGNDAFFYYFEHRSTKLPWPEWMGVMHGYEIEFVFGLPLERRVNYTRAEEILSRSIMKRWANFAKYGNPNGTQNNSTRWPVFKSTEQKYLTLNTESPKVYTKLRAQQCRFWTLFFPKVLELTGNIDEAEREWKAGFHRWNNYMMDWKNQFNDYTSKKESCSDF
Acetylcholinesterase (Electrophorus electricus, UniProt O42275), sequence (O42275 whole entry): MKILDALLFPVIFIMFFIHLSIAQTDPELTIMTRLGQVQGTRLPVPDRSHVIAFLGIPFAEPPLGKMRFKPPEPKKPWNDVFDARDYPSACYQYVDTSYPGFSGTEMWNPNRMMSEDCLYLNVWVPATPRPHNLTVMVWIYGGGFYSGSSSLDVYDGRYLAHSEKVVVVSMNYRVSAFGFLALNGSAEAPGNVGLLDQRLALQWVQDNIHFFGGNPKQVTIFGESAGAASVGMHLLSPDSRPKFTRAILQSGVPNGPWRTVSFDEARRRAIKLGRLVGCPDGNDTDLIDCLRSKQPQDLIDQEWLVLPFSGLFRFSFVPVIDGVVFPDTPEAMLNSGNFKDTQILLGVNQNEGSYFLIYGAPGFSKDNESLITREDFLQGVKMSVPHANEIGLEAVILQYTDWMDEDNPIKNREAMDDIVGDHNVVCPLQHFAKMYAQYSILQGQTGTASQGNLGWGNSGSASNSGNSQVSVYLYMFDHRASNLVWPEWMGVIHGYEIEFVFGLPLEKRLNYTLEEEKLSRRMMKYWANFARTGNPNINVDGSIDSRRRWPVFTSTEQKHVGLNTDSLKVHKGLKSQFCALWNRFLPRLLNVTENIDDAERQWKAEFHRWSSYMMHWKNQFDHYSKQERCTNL
Butyrylcholinesterase, sequence (Q9JKC1 whole entry): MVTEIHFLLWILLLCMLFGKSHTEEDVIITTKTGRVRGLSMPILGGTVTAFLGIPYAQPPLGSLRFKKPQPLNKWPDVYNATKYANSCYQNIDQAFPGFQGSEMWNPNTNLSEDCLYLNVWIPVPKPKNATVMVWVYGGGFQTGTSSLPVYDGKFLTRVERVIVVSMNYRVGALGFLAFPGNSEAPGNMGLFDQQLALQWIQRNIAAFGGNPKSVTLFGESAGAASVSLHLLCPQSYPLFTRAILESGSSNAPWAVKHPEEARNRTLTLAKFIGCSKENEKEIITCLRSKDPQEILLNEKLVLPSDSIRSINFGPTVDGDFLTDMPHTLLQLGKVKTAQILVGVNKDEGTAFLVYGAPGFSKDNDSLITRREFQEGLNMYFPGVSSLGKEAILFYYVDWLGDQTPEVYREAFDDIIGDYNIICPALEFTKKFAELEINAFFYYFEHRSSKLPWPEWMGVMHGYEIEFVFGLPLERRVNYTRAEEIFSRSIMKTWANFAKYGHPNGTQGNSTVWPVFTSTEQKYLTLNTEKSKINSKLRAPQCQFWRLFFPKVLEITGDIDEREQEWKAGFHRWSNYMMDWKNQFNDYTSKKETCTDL

With `CC(C)N1CCN(CCCCN2C(=O)c3ccccc3C2=O)CC1`, the 50% inhibitory concentration (IC50) (in general, the concentration that inhibits the measured activity by half) in assay [1] amounted to 17.9 µM; in assay [2], 8.9 µM; in assay [3] it was 23.4 µM; in assay [4], 5.3 µM; in assay [6], 3.9 µM. Moreover, the inhibition (as a rule, the percentage by which the read-out fell short of the control) at 20 µM in assay [5] was under 5%. Further, in assay [7], the Ratio IC50 was 4.4.
On to `CCN(CCCN1C(=O)c2ccccc2C1=O)Cc1ccccc1`, for which the IC50 in assay [1] was found to be 13.2 µM; in assay [2], 6.9 µM; in assay [3], 9.3 µM; in assay [4], 3.3 µM; in assay [6], 1.1 µM. The inhibition at 20 µM in assay [5] is under 5%. In addition, the Ratio IC50 in assay [7] is 2.8.
For `COc1ccccc1CN(C)CCCCCCN1C(=O)c2ccccc2C1=O`, the IC50 in assay [1] is 42.9 µM; in assay [2] it was 11.3 µM; in assay [3], 30.6 µM; in assay [4], 1.1 µM; in assay [6], 0.6 µM. For the same compound, the inhibition at 20 µM in assay [5] is under 5%. For the same compound, the Ratio IC50 in assay [7] came to 27.8.
For the compound `C#CCN(CCCCCCN1C(=O)c2ccccc2C1=O)Cc1ccccc1OC`, the IC50 was 22.5 µM in assay [1]; 9.1 µM in assay [2]; 13.4 µM in assay [3]; 4.9 µM in assay [4]; 4.3 µM in assay [6]. The inhibition at 20 µM in assay [5] was under 5%. Besides, in assay [7], the Ratio IC50 is 2.7.
On to `C#CCN(CCCCN1C(=O)c2ccccc2C1=O)Cc1ccccc1`, for which the IC50 in assay [1] came to 32.4 µM; in assay [2], 6.5 µM; in assay [3], 12.7 µM; in assay [4] it was 4.9 µM; in assay [6], 4 µM. Besides, the inhibition at 20 µM in assay [5] was under 5%. Moreover, the Ratio IC50 in assay [7] stood at 2.6.
With `C#CCN(CCCCCCN1C(=O)c2ccccc2C1=O)Cc1ccccc1`, the IC50 in assay [1] came to 16.2 µM; in assay [2], 8.2 µM; in assay [3], 7.6 µM; in assay [4], 6.8 µM; in assay [6] it was 7.6 µM. In addition, in assay [5], the inhibition at 20 µM was under 5%. Also, the Ratio IC50 in assay [7] came to 1.1.
As for `CC(C)N1CCN(CCCCCCN2C(=O)c3ccccc3C2=O)CC1`, the IC50 in assay [1] is 27.9 µM; in assay [2] it was 13.1 µM; in assay [3], 19.4 µM; in assay [4], 8.8 µM; in assay [6] it was 6.3 µM. Also, the inhibition at 20 µM in assay [5] is under 5%. Besides, the Ratio IC50 in assay [7] was determined as 2.2.
On to `C#CCN(CCCCCN1C(=O)c2ccccc2C1=O)Cc1ccccc1OC`, for which the IC50 came to 44.4 µM in assay [1]; 6.3 µM in assay [2]; 26.3 µM in assay [3]; 9.6 µM in assay [4]; 14 µM in assay [6]. In addition, the inhibition at 20 µM in assay [5] is under 5%. In addition, the Ratio IC50 in assay [7] stood at 2.7.
In the case of `CC(C)N1CCN(CCCN2C(=O)c3ccccc3C2=O)CC1`, the IC50 in assay [1] stood at 32.9 µM; in assay [2], 10.4 µM; in assay [3], 34.9 µM; in assay [4], 12.9 µM; in assay [6] it was 8.3 µM. For the same compound, the inhibition at 20 µM in assay [5] is under 5%. In assay [7], the Ratio IC50 stood at 2.7.
Consider `C#CCN(CCCCN1C(=O)c2ccccc2C1=O)Cc1ccccc1OC`, for which the IC50 in assay [1] is 39 µM; in assay [2], 5.6 µM; in assay [3], 8.3 µM; in assay [4], 3.4 µM; in assay [6], 5.1 µM. In assay [5], the inhibition at 20 µM was under 5%. In addition, the Ratio IC50 in assay [7] was determined as 2.4.
Consider `CN(CCCN1C(=O)c2ccccc2C1=O)Cc1ccccc1`, for which the IC50 in assay [1] was 22.8 µM; in assay [2] it was 6.1 µM; in assay [3] it was 22.9 µM; in assay [4], 8.2 µM; in assay [6], 12.8 µM. The inhibition at 20 µM in assay [5] is under 5%. For the same compound, the Ratio IC50 in assay [7] was determined as 2.8.
On to `CN(CCN1C(=O)c2ccccc2C1=O)Cc1ccccc1`, for which the 50% inhibitory concentration (IC50) is 26.2 µM in assay [1]; 7.3 µM in assay [2]; 22.5 µM in assay [3]; 15.9 µM in assay [4]; 16 µM in assay [6]. In assay [5], the inhibition at 20 µM was under 5%. In addition, the Ratio IC50 in assay [7] came to 1.4.
Take `C#CCN(CCCCCN1C(=O)c2ccccc2C1=O)Cc1ccccc1`: the 50% inhibitory concentration (IC50) in assay [1] was found to be 58.5 µM; in assay [2], 5.9 µM; in assay [3], 13.9 µM; in assay [4], 3.4 µM; in assay [6], 10.4 µM. Moreover, the inhibition at 20 µM in assay [5] is under 5%. In assay [7], the Ratio IC50 is 4.1.
In the case of `CC(C)N1CCN(CCCCCN2C(=O)c3ccccc3C2=O)CC1`, the half-inhibitory concentration (IC50) was found to be 16.3 µM in assay [1]; 12.6 µM in assay [2]; 34.5 µM in assay [3]; 7.9 µM in assay [4]; 5.4 µM in assay [6]. For the same compound, the inhibition at 20 µM in assay [5] was under 5%. In assay [7], the Ratio IC50 worked out at 4.4.
For the compound `CN(CCCCCCN1C(=O)c2ccccc2C1=O)Cc1ccccc1`, the IC50 turned out to be 20.7 µM in assay [1]; 8.3 µM in assay [2]; 17.9 µM in assay [3]; 2.1 µM in assay [4]; 3.9 µM in assay [6]. Also, the inhibition at 20 µM in assay [5] was under 5%. Also, the Ratio IC50 in assay [7] turned out to be 8.5.
Consider `C#CCN(CCCN1C(=O)c2ccccc2C1=O)Cc1ccccc1OC`, for which the IC50 in assay [1] was determined as 5.3 µM; in assay [2], 7.6 µM; in assay [3], 5.8 µM; in assay [4] it was 13.5 µM; in assay [6] it was 4.1 µM. In addition, in assay [5], the inhibition at 20 µM is under 5%. Further, the Ratio IC50 in assay [7] worked out at 0.43.
For the compound `CCN(CCN1C(=O)c2ccccc2C1=O)Cc1ccccc1OC`, the half-maximal inhibitory concentration (IC50) in assay [1] stood at 15.9 µM; in assay [2], 6.9 µM; in assay [3], 18.3 µM; in assay [4] it was 3.6 µM; in assay [6], 0.9 µM. Further, the inhibition at 20 µM in assay [5] was under 5%. Besides, in assay [7], the Ratio IC50 stood at 5.1.
In the case of `COc1ccccc1CN(C)CCN1C(=O)c2ccccc2C1=O`, the IC50 came out at 14.8 µM in assay [1]; 8.4 µM in assay [2]; 11.9 µM in assay [3]; 6.2 µM in assay [4]; 13.9 µM in assay [6]. In assay [5], the inhibition at 20 µM is under 5%. For the same compound, the Ratio IC50 in assay [7] was found to be 1.9.
`CCN(CCN1C(=O)c2ccccc2C1=O)Cc1ccccc1`: the concentration for half-maximal inhibition (IC50) came out at 16.1 µM in assay [1]; 8.3 µM in assay [2]; 21.9 µM in assay [3]; 9.3 µM in assay [4]; 13.2 µM in assay [6]. Further, the inhibition at 20 µM in assay [5] was under 5%. In assay [7], the Ratio IC50 was 2.4.
Take `CN(CCCCN1C(=O)c2ccccc2C1=O)Cc1ccccc1`: the IC50 in assay [1] worked out at 8.4 µM; in assay [2], 4.2 µM; in assay [3] it was 14.5 µM; in assay [4], 2.6 µM; in assay [6] it was 4.3 µM. Besides, the inhibition at 20 µM in assay [5] was under 5%. Besides, the Ratio IC50 in assay [7] was determined as 5.6.
In the case of `COc1ccccc1CN(C)CCCN1C(=O)c2ccccc2C1=O`, the IC50 is 27.7 µM in assay [1]; 9.8 µM in assay [2]; 3.7 µM in assay [3]; 4.6 µM in assay [4]; 9.8 µM in assay [6]. In assay [5], the inhibition at 20 µM is under 5%. For the same compound, the Ratio IC50 in assay [7] was determined as 0.8.
